In ChEMBL document CHEMBL6121016, “Design, Synthesis, and Biological Evaluation of 1,3,4-Thiadiazole Derivatives as Novel Potent Peptide Deformylase Inhibitors for Combating Drug-Resistant Gram-Positive and -Negative Bacteria” (J Med Chem, 2025):
In brackets after ≈: the same amount, converted by molar mass.

Experiments:
Format in all cases: functional
Details in all cases: time 16-18 hrs
Staphylococcus aureus [1] = assay: Antibacterial activity against methicillin-resistant Staphylococcus aureus ATCC 33591 after 16 to 18 hrs by broth microdilution method
Staphylococcus aureus [2] = assay: Antibacterial activity against methicillin-resistant Staphylococcus aureus ATCC 43300 after 16 to 18 hrs by broth microdilution method
Staphylococcus aureus [3] = assay: Antibacterial activity against methicillin-resistant Staphylococcus aureus Bio-090770 after 16 to 18 hrs by broth microdilution method
Staphylococcus aureus [4] = assay: Antibacterial activity against methicillin-susceptible Staphylococcus aureus ATCC 29213 after 16 to 18 hrs by broth microdilution method
Staphylococcus aureus [5] = assay: Antibacterial activity against methicillin-susceptible Staphylococcus aureus ATCC 25923 after 16 to 18 hrs by broth microdilution method
Staphylococcus aureus [6] = assay: Antibacterial activity against methicillin-susceptible Staphylococcus aureus ATCC 13709 after 16 to 18 hrs by broth microdilution method
[7] = system: Staphylococcus epidermidis; assay: Antibacterial activity against Staphylococcus epidermidis after 16 to 18 hrs by broth microdilution method
Escherichia coli = assay: Antibacterial activity against Escherichia coli ATCC 25922 after 16 to 18 hrs by broth microdilution method
Klebsiella pneumoniae = assay: Antibacterial activity against Klebsiella pneumoniae CICC 21611 after 16 to 18 hrs by broth microdilution method
Acinetobacter baumannii [8] = assay: Antibacterial activity against Acinetobacter baumannii Bio 34235 after 16 to 18 hrs by broth microdilution method
Acinetobacter baumannii [9] = assay: Antibacterial activity against drug-resistant Acinetobacter baumannii Bio 53272 after 16 to 18 hrs by broth microdilution method

Row | Compound | MIC (Staphylococcus aureus [1]) [µg/mL] | MIC (Staphylococcus aureus [2]) [µg/mL] | MIC (Staphylococcus aureus [3]) [µg/mL] | MIC (Staphylococcus aureus [4]) [µg/mL] | MIC (Staphylococcus aureus [5]) [µg/mL] | MIC (Staphylococcus aureus [6]) [µg/mL] | MIC [7] [µg/mL] | MIC (Escherichia coli) [µg/mL] | MIC (Klebsiella pneumoniae) [µg/mL] | MIC (Acinetobacter baumannii [8]) [µg/mL] | MIC (Acinetobacter baumannii [9]) [µg/mL]
1 | CCCC[C@H](CN(O)C=O)C(=O)N1CCC[C@H]1c1nnc(-c2ccc(C(C)(C)C)cc2)s1 | 1 (≈ 2.18 µM) | 1 (≈ 2.18 µM) | 4 (≈ 8.72 µM) | 2 (≈ 4.36 µM) | 4 (≈ 8.72 µM) | 2 (≈ 4.36 µM) | 4 (≈ 8.72 µM) | > 16 | > 16 | > 16 | > 16
2 | CCCC[C@H](CN(O)C=O)C(=O)N1CCC[C@H]1c1nnc(-c2ccccc2F)s1 | 0.5 (≈ 1.19 µM) | 0.5 (≈ 1.19 µM) | 1 (≈ 2.38 µM) | 1 (≈ 2.38 µM) | 0.5 (≈ 1.19 µM) | 0.5 (≈ 1.19 µM) | 2 (≈ 4.76 µM) | 16 (≈ 38 µM) | > 16 | 16 (≈ 38 µM) | 8 (≈ 19 µM)
3 | CCCC[C@H](CN(O)C=O)C(=O)N1CCC[C@H]1c1nnc(-c2ccco2)s1 | 0.5 (≈ 1.27 µM) | 0.5 (≈ 1.27 µM) | 2 (≈ 5.1 µM) | 2 (≈ 5.1 µM) | 4 (≈ 10.2 µM) | 1 (≈ 2.55 µM) | 0.5 (≈ 1.27 µM) | 64 (≈ 163 µM) | 32 (≈ 81.5 µM) | 16 (≈ 40.8 µM) | 16 (≈ 40.8 µM)
4 | CCCCc1ccc(-c2nnc([C@@H]3CCCN3C(=O)[C@H](CCCC)CN(O)C=O)s2)cc1 | 2 (≈ 4.36 µM) | 2 (≈ 4.36 µM) | 4 (≈ 8.72 µM) | 4 (≈ 8.72 µM) | 4 (≈ 8.72 µM) | 4 (≈ 8.72 µM) | 8 (≈ 17.4 µM) | > 16 | > 16 | > 16 | > 16
5 | CCCC[C@H](CN(O)C=O)C(=O)N1CCC[C@H]1c1nnc(-c2ccc(F)cc2[N+](=O)[O-])s1 | 1 (≈ 2.15 µM) | 2 (≈ 4.3 µM) | 4 (≈ 8.59 µM) | 2 (≈ 4.3 µM) | 4 (≈ 8.59 µM) | 2 (≈ 4.3 µM) | 4 (≈ 8.59 µM) | > 16 | > 16 | > 16 | > 16
6 | CCCC[C@H](CN(O)C=O)C(=O)N1CCC[C@H]1c1nnc(Cc2cccs2)s1 | 0.5 (≈ 1.18 µM) | 1 (≈ 2.37 µM) | 2 (≈ 4.73 µM) | 2 (≈ 4.73 µM) | 2 (≈ 4.73 µM) | 2 (≈ 4.73 µM) | 2 (≈ 4.73 µM) | > 16 | > 16 | 16 (≈ 37.9 µM) | 16 (≈ 37.9 µM)
7 | CCCC[C@H](CN(O)C=O)C(=O)N1CCC[C@H]1c1nnc(-c2ccc([N+](=O)[O-])cc2)s1 | 0.25 (≈ 0.559 µM) | 0.25 (≈ 0.559 µM) | 1 (≈ 2.23 µM) | 0.5 (≈ 1.12 µM) | 0.5 (≈ 1.12 µM) | 0.5 (≈ 1.12 µM) | 1 (≈ 2.23 µM) | > 16 | > 16 | > 16 | 8 (≈ 17.9 µM)
8 | CCCC[C@H](CN(O)C=O)C(=O)N1CCC[C@H]1c1nnc(-c2ccc(F)cn2)s1 | 0.5 (≈ 1.19 µM) | 0.5 (≈ 1.19 µM) | 2 (≈ 4.74 µM) | 1 (≈ 2.37 µM) | 2 (≈ 4.74 µM) | 2 (≈ 4.74 µM) | 2 (≈ 4.74 µM) | 16 (≈ 38 µM) | > 16 | 16 (≈ 38 µM) | 8 (≈ 19 µM)
9 | CCCC[C@H](CN(O)C=O)C(=O)N1CCC[C@H]1c1nnc(-c2ccc(C(F)(F)F)cc2)s1 | 1 (≈ 2.13 µM) | 2 (≈ 4.25 µM) | 2 (≈ 4.25 µM) | 4 (≈ 8.5 µM) | 2 (≈ 4.25 µM) | 4 (≈ 8.5 µM) | 4 (≈ 8.5 µM) | > 16 | > 16 | > 16 | 16 (≈ 34 µM)
10 | CCCC[C@H](CN(O)C=O)C(=O)N1CCC[C@H]1c1nnc(-c2ccc([N+](=O)[O-])cc2C(F)(F)F)s1 | 0.5 (≈ 0.97 µM) | 0.5 (≈ 0.97 µM) | 1 (≈ 1.94 µM) | 1 (≈ 1.94 µM) | 2 (≈ 3.88 µM) | 0.5 (≈ 0.97 µM) | 4 (≈ 7.76 µM) | > 16 | > 16 | > 16 | > 16
11 | CCCC[C@H](CN(O)C=O)C(=O)N1CCC[C@H]1c1nnc(-c2ccc(OC)cc2)s1 | 0.25 (≈ 0.578 µM) | 0.25 (≈ 0.578 µM) | 1 (≈ 2.31 µM) | 0.5 (≈ 1.16 µM) | 0.5 (≈ 1.16 µM) | 0.5 (≈ 1.16 µM) | 1 (≈ 2.31 µM) | > 16 | > 16 | 16 (≈ 37 µM) | > 8
12 | CCCC[C@H](CN(O)C=O)C(=O)N1CCC[C@H]1c1nnc(-c2ccncc2)s1 | 0.25 (≈ 0.62 µM) | 0.5 (≈ 1.24 µM) | 1 (≈ 2.48 µM) | 0.5 (≈ 1.24 µM) | 1 (≈ 2.48 µM) | 0.5 (≈ 1.24 µM) | 0.5 (≈ 1.24 µM) | 128 (≈ 317 µM) | 32 (≈ 79.3 µM) | 64 (≈ 159 µM) | 32 (≈ 79.3 µM)
13 | CCCC[C@H](CN(O)C=O)C(=O)N1CCC[C@H]1c1nnc(-c2ccc(C)cc2)s1 | 0.5 (≈ 1.2 µM) | 1 (≈ 2.4 µM) | 1 (≈ 2.4 µM) | 1 (≈ 2.4 µM) | 1 (≈ 2.4 µM) | 1 (≈ 2.4 µM) | 2 (≈ 4.8 µM) | 16 (≈ 38.4 µM) | > 16 | > 16 | 8 (≈ 19.2 µM)
14 | CCCC[C@H](CN(O)C=O)C(=O)N1CCC[C@H]1c1nnc(-c2ccc(F)cc2)s1 | 0.25 (≈ 0.595 µM) | 1 (≈ 2.38 µM) | 2 (≈ 4.76 µM) | 2 (≈ 4.76 µM) | 2 (≈ 4.76 µM) | 1 (≈ 2.38 µM) | 2 (≈ 4.76 µM) | 16 (≈ 38 µM) | > 16 | > 16 | 8 (≈ 19 µM)
15 | CCCC[C@H](CN(O)C=O)C(=O)N1CCC[C@H]1c1nnc(-c2cc(C)nn2C)s1 | 0.25 (≈ 0.594 µM) | 0.25 (≈ 0.594 µM) | 1 (≈ 2.38 µM) | 1 (≈ 2.38 µM) | 1 (≈ 2.38 µM) | 1 (≈ 2.38 µM) | 1 (≈ 2.38 µM) | 64 (≈ 152 µM) | 32 (≈ 76.1 µM) | 32 (≈ 76.1 µM) | 16 (≈ 38 µM)
16 | CCCC[C@H](CN(O)C=O)C(=O)N1CCC[C@H]1c1nnc(-c2ccns2)s1 | 0.25 (≈ 0.61 µM) | 0.5 (≈ 1.22 µM) | 2 (≈ 4.88 µM) | 1 (≈ 2.44 µM) | 1 (≈ 2.44 µM) | 1 (≈ 2.44 µM) | 0.5 (≈ 1.22 µM) | 64 (≈ 156 µM) | 16 (≈ 39.1 µM) | 32 (≈ 78.1 µM) | 16 (≈ 39.1 µM)
17 | CCCC[C@H](CN(O)C=O)C(=O)N1CCC[C@H]1c1nnc(CCC)s1 | 1 (≈ 2.71 µM) | 1 (≈ 2.71 µM) | 4 (≈ 10.9 µM) | 2 (≈ 5.43 µM) | 2 (≈ 5.43 µM) | 2 (≈ 5.43 µM) | 2 (≈ 5.43 µM) | > 16 | > 16 | > 16 | > 16
18 | CCCC[C@H](CN(O)C=O)C(=O)N1CCC[C@H]1c1nnc(-c2ncccc2F)s1 | 0.25 (≈ 0.593 µM) | 0.25 (≈ 0.593 µM) | 2 (≈ 4.74 µM) | 1 (≈ 2.37 µM) | 1 (≈ 2.37 µM) | 1 (≈ 2.37 µM) | 1 (≈ 2.37 µM) | > 16 | > 16 | 16 (≈ 38 µM) | 16 (≈ 38 µM)
19 | CCCC[C@H](CN(O)C=O)C(=O)N1CCC[C@H]1c1nnc(-c2ccccc2OC)s1 | 2 (≈ 4.62 µM) | 0.5 (≈ 1.16 µM) | 2 (≈ 4.62 µM) | 0.5 (≈ 1.16 µM) | 1 (≈ 2.31 µM) | 1 (≈ 2.31 µM) | 2 (≈ 4.62 µM) | 16 (≈ 37 µM) | > 16 | 16 (≈ 37 µM) | 16 (≈ 37 µM)
